According to patent US9920061B2, “Imidazo[1,5-A]pyrimidinyl carboxamide compounds and their use in the treatment of medical disorders” (Lysosomal Therapeutics Inc., priority 2016, dated 2018):
Converted amounts (≈) assume the structure as drawn. Read-outs that look alike come from different tables or passages of the source.

What was measured:
[1] = Compound solubility in water; assay type: physicochemical
[2] = target: T1, glucocerebrosidase (Gcase) (Homo sapiens, UniProt P04062); experiment: Glucocerebrosidase (Gcase) activation assay, 4-methylumbelliferyl-beta-D-glucopyranoside substrate, with saposin C; assay type: biochemical
T1 sequence (P04062 40-536): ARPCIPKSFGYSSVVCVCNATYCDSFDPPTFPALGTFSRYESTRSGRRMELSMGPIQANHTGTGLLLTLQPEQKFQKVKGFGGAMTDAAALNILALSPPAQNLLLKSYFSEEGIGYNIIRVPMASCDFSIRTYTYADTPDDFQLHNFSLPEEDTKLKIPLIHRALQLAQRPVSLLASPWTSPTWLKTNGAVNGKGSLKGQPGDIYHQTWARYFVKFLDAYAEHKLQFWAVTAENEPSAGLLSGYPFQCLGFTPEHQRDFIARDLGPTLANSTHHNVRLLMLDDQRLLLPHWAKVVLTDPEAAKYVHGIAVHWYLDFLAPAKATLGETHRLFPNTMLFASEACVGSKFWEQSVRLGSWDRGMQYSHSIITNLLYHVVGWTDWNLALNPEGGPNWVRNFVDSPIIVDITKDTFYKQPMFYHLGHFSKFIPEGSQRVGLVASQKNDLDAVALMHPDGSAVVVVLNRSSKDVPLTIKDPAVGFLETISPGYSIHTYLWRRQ
Protocol: The ability of exemplary compounds to activate glucocerebrosidase (Gcase) was measured.
A 484 μL aliquot of a 1.0 mg/mL solution of phosphatidylserine (PS) (Sigma P7769) in chloroform was evaporated under a stream of nitrogen for 1 hour. The lipid film was dissolved over 4 minutes of vigorous vortexing in 40 mL of 176 mM K2HPO4/50 mM citric acid (pH 4.7) containing 7.5 μL of triton X-100, resulting in a mixed micellar preparation with a composition of 0.32 mM triton and 0.37 mol % PS. 4-Methylumbelliferyl-beta-D-glucopyranoside (ACROS-337025000) was dissolved in the micellar solution to a final concentration of 2 mM for use as the reaction substrate.
Test compounds were diluted to the desired concentrations with dimethylsulfoxide (DMSO) from 10 mM stocks, and 0.41 μL of the DMSO compound mixture was added to 100 μL of micellar solution containing 10 nM GCase and 100 nM saposin C (Enzo ALX-201-262-C050). Pre-incubation was allowed to occur for 30 minutes at room temperature, after which the reaction was initiated by combining 25 μL of substrate solution with 25 μL of compound/GCase/saposin mixture. The reaction proceeded for 15 minutes at room temperature and was stopped by adding 150 μL of 1M glycine, pH 12.5. The endpoint of the reaction was monitored by measuring fluorescence intensity (excitation: 365 nm; emission: 440 nm) on a SpectraMax i3 instrument (Molecular Devices). Test compounds were screened at 1.0 and 0.1 μM final concentration, and subsequent 8-point dose response curves were obtained using 3-fold dilutions from a maximum final concentration of […].

[3] = 0.1 μM test compound, read-out: Percent Gcase Activation 0.1 μM Test Compound
[4] = 1 μM test compound, read-out: Percent Gcase Activation 1 μM Test Compound
[5] = test compound at 0.1 μM, read-out: Percent Gcase Activation, 0.1 μM Test Compound
[6] = test compound at 1.0 μM, read-out: Percent Gcase Activation, 1 μM Test Compound

Row | Compound | solubility [1] [µg/mL] | activation at 0.1 µM [2, 3] [%] | activation at 1 µM [2, 4] [%] | solubility ([1]; in water) [µg/mL] | activation at 0.1 µM [2, 5] [%] | activation at 1 µM [2, 6] [%]
1 | Cc1cc(NC2CC2)nc2c(C(=O)NC(c3ccc(F)cc3)C(F)(F)F)ncn12 (stereo not drawn) [III-91] | 0.8 (≈ 1.96 µM) | > 20 | > 60 | – | – | –
2 | Cc1cc(-c2ccn3ccnc3c2)nc2c(C(=O)N[C@@H](C)C3CC3)ncn12 [III-131] | 2.8 (≈ 7.77 µM) | < 10 | < 30 | – | – | –
3 | Cc1cc(-c2cccnc2)nc2c(C(=O)NC(C)(C)C3CC3)ncn12 [III-41] | 27.1 (≈ 80.8 µM) | < 10 | 30 to 60 | – | – | –
4 | COc1cccc(-c2cc(C)n3cnc(C(=O)NC(C)(C)C(F)(F)F)c3n2)c1 [III-184] | 4.3 (≈ 11 µM) | > 20 | > 60 | – | – | –
5 | CCCO[C@H]1CC[C@H](NC(=O)c2ncn3c(C)cc(-c4cccnc4)nc23)CC1 [III-65] | 15.4 (≈ 39.1 µM) | < 10 | < 30 | – | – | –
6 | Cc1cc(-c2cccc(C#N)c2)nc2c(C(=O)NC(C)(C)C3CC3)ncn12 [III-151] | 4.3 (≈ 12 µM) | > 20 | > 60 | – | – | –
7 | Cc1cc(-c2ccc3ncoc3c2)nc2c(C(=O)N[C@@H](C)C3CC3)ncn12 [III-129] | 6.1 (≈ 16.9 µM) | < 10 | > 60 | – | – | –
8 | Cc1cc(-c2cccc(C(N)=O)c2)nc2c(C(=O)NC(C3CC3)C(F)(F)F)ncn12 (stereo not drawn) [IV-112] | – | – | – | 1.1 (≈ 2.64 µM) | 10 to 20 | > 60
9 | CCCCO[C@H]1C[C@H]2CC[C@@H](C1)[C@@H]2NC(=O)c1ncn2c(C)cc(COC)nc12 [IV-5] | – | – | – | 24.3 (≈ 60.7 µM) | < 10 | > 60
10 | C#CC(C)(C)NC(=O)c1ncn2c(C)cc(-c3cccc(OC)n3)nc12 [III-148] | 4.9 (≈ 14 µM) | < 10 | 30 to 60 | – | – | –
11 | Cc1cc(-c2ccnn2C)nc2c(C(=O)NC(C)(C)C3CC3)ncn12 [III-69] | 8.5 (≈ 25.1 µM) | < 10 | < 30 | – | – | –
12 | Cc1cc(-n2ccnc2)nc2c(C(=O)NC(C)(C)C3CC3)ncn12 [III-67] | 23.4 (≈ 72.1 µM) | < 10 | < 30 | – | – | –
13 | Cc1cc(-c2ccccc2C(N)=O)nc2c(C(=O)NC(C3CC3)C(F)(F)F)ncn12 (stereo not drawn) [III-154] | 28.1 (≈ 67.3 µM) | < 10 | < 30 | – | – | –
14 | Cc1cc(-c2cc(F)ccc2C#N)nc2c(C(=O)NC(C3CC3)C(F)(F)F)ncn12 (stereo not drawn) [IV-108] | – | – | – | 0.7 (≈ 1.68 µM) | > 20 | > 60
15 | Cc1cc(-c2cc(Cl)ccn2)nc2c(C(=O)N[C@@H](C)C3CC3)ncn12 [III-104] | 8 (≈ 22.5 µM) | 10 to 20 | > 60 | – | – | –
16 | C#CC(C)(C)NC(=O)c1ncn2c(C)cc(-c3ccc4c(c3)OCO4)nc12 [IV-26] | – | – | – | 0.5 (≈ 1.38 µM) | 10 to 20 | > 60
17 | Cc1cc(-c2ccc3c(c2)OCO3)nc2c(C(=O)N[C@@H](C)C(F)(F)F)ncn12 [IV-78] | – | – | – | 3.3 (≈ 8.41 µM) | > 20 | > 60
18 | Cc1cc(Oc2cccc(F)c2)nc2c(C(=O)N[C@@H](C)C3CC3)ncn12 [III-119] | 8.8 (≈ 24.8 µM) | < 10 | 30 to 60 | – | – | –
19 | COc1ccccc1[C@H](C)NC(=O)c1ncn2c(C)cc(-c3ccc(F)cc3)nc12 [III-30] | 1.3 (≈ 3.21 µM) | 10 to 20 | > 60 | – | – | –
20 | Cc1cc(-c2cncs2)nc2c(C(=O)NC(C)(C)C3CC3)ncn12 [III-58] | 44.4 (≈ 130 µM) | < 10 | > 60 | – | – | –
21 | CCc1cc(-c2ccns2)nc2c(C(=O)NC(C3CC3)C(F)(F)F)ncn12 (stereo not drawn) [III-165] | 4.7 (≈ 11.9 µM) | > 20 | > 60 | – | – | –
22 | Cc1cc(-c2cccc(C#N)n2)nc2c(C(=O)NC(C3CC3)C(F)(F)F)ncn12 (stereo not drawn) [IV-39] | – | – | – | 0.3 (≈ 0.749 µM) | < 10 | 30 to 60
23 | Cc1cc(N2CCCC(F)(F)C2)nc2c(C(=O)NC(C)(C)C3CC3)ncn12 [III-92] | 9.6 (≈ 25.4 µM) | 10 to 20 | > 60 | – | – | –

Row | Compound | solubility [1] [µg/mL] | activation at 0.1 µM [2, 3] [%] | activation at 1 µM [2, 4] [%] | solubility ([1]; in water) [µg/mL] | activation at 0.1 µM [2, 5] [%] | activation at 1 µM [2, 6] [%]
24 | Cc1cc(-c2csc(C#N)c2)nc2c(C(=O)NC(C3CC3)C(F)(F)F)ncn12 (stereo not drawn) [IV-87] | – | – | – | 9.2 (≈ 22.7 µM) | > 20 | > 60
25 | Cc1cc(-c2cccc(Cl)c2)nc2c(C(=O)NC(C)(C)C(F)(F)F)ncn12 [III-185] | 3.7 (≈ 9.32 µM) | > 20 | > 60 | – | – | –
26 | Cc1cc(-c2ncc[nH]2)nc2c(C(=O)NC(C)(C)C3CC3)ncn12 [III-117] | 20.5 (≈ 63.2 µM) | < 10 | < 30 | – | – | –
27 | CCC(NC(=O)c1ncn2c(C)cc(-c3ccccn3)nc12)c1ccc(F)cc1 (stereo not drawn) [III-31] | 2.7 (≈ 6.93 µM) | 10 to 20 | > 60 | – | – | –
28 | Cc1cc(-c2ccon2)nc2c(C(=O)NC(C3CC3)C(F)(F)F)ncn12 (stereo not drawn) [IV-9] | – | – | – | 3.9 (≈ 10.7 µM) | < 10 | 30 to 60
29 | Cc1cc(-c2cc(C#N)co2)nc2c(C(=O)NC(C3CC3)C(F)(F)F)ncn12 (stereo not drawn) [IV-81] | – | – | – | 1 (≈ 2.57 µM) | 10 to 20 | > 60
30 | Cc1cc(-c2ccccn2)nc2c(C(=O)NC(C)C3CC3)ncn12 (stereo not drawn) [III-44] | 26 (≈ 80.9 µM) | < 10 | < 30 | – | – | –
31 | Cc1cc(-c2ccc(F)cc2)nc2c(C(=O)NC(C3CC3)C3CC3)ncn12 [III-87] | 2.2 (≈ 6.04 µM) | > 20 | > 60 | – | – | –
32 | CCOc1cccc(-c2cc(C)n3cnc(C(=O)NC(C)C(F)(F)F)c3n2)c1 (stereo not drawn) [III-168] | 1.4 (≈ 3.57 µM) | > 20 | > 60 | – | – | –
33 | COc1cc(-c2cc(C)n3cnc(C(=O)NC(C4CC4)C(F)(F)F)c3n2)ccc1F (stereo not drawn) [III-171] | 0.6 (≈ 1.42 µM) | > 20 | > 60 | – | – | –
34 | Cc1cc(-c2ccc(C#N)o2)nc2c(C(=O)NC(C3CC3)C(F)(F)F)ncn12 (stereo not drawn) [IV-33] | – | – | – | 0.7 (≈ 1.8 µM) | > 20 | > 60
35 | COc1ccnc(-c2cc(C)n3cnc(C(=O)NC(C)C4CC4)c3n2)c1 (stereo not drawn) [III-100] | 7.2 (≈ 20.5 µM) | < 10 | 30 to 60 | – | – | –
36 | C#CC(C)(C)NC(=O)c1ncn2c(C)cc(-c3cc(F)cc(F)c3)nc12 [III-188] | 0.3 (≈ 0.847 µM) | 10 to 20 | > 60 | – | – | –
37 | COc1cc(F)cc(-c2cc(C)n3cnc(C(=O)NC(C)C(F)(F)F)c3n2)c1 (stereo not drawn) [IV-57] | – | – | – | 1.2 (≈ 3.03 µM) | > 20 | > 60
38 | C#CC(C)(C)NC(=O)c1ncn2c(C)cc(-c3cccc(F)c3)nc12 [III-164] | 4.5 (≈ 13.4 µM) | > 20 | > 60 | – | – | –
39 | Cc1cc(-c2cc(C#N)cs2)nc2c(C(=O)NC(C3CC3)C(F)(F)F)ncn12 (stereo not drawn) [IV-85] | – | – | – | 5.9 (≈ 14.6 µM) | > 20 | > 60
40 | Cc1cc(-c2ccccn2)nc2c(C(=O)NC(CC(C)C)C3CC3)ncn12 (stereo not drawn) [III-27] | 4.6 (≈ 12.7 µM) | > 20 | > 60 | – | – | –
41 | Cc1cc(C#N)c(-c2cc(C)n3cnc(C(=O)NC(C4CC4)C(F)(F)F)c3n2)o1 (stereo not drawn) [IV-92] | – | – | – | 0.3 (≈ 0.744 µM) | > 20 | > 60
42 | Cc1cc(-c2ccc(F)cc2)n2cnc(C(=O)N[C@@H](C)C3CC3)c2n1 [III-13] | 25 (≈ 73.9 µM) | < 10 | < 30 | – | – | –
43 | COCc1cc(C)n2cnc(C(=O)NC(c3ccc(F)cc3)C(F)(F)F)c2n1 (stereo not drawn) [III-22] | 24.7 (≈ 62.3 µM) | < 10 | > 60 | – | – | –
44 | Cc1cc(-c2ccccc2C#N)nc2c(C(=O)NC(C)(C)C)ncn12 [IV-109] | – | – | – | 2.5 (≈ 7.5 µM) | < 10 | 30 to 60
45 | Cc1cc(-c2cccc(F)c2)nc2c(C(=O)NC(C)(C)C(F)(F)F)ncn12 [III-183] | 0.6 (≈ 1.58 µM) | > 20 | > 60 | – | – | –
